Assay results as given in the NIST ThermoML archive (doi:10.1021/je301123j).

Experiment: xn = mol fraction of the nth substance listed
Conditions: for surface tension liquid-gas: Ring tensiometer; for mass density / speed of sound / viscosity: 100 kPa, Liquid

CCN1CCCC1=O [1-ethyl-2-pyrrolidinone] + OCCN(CCO)CCO
Conditions | mass density [kg/m3] | speed of sound [m/s] | surface tension liquid-gas [mN/m] | viscosity [mPa·s]
293.15 K, x1 = 0.1001 | 1112.5 | 1611.4 | 44.7 | 570.35
293.15 K, x1 = 0.2 | 1101.3 | 1598.1 | 43.4 | 312.31
293.15 K, x1 = 0.3 | 1089.95 | 1585.4 | 42 | 164.25
293.15 K, x1 = 0.4004 | 1077.59 | 1574.5 | 40.9 | 81.22
293.15 K, x1 = 0.5001 | 1066.06 | 1565.5 | 40.1 | 41.49
293.15 K, x1 = 0.6002 | 1053.3 | 1555.6 | 39.2 | 21.52
293.15 K, x1 = 0.7002 | 1040.32 | 1545.9 | 38.3 | 11.54
293.15 K, x1 = 0.8 | 1026.31 | 1536.1 | 37.8 | 6.382
293.15 K, x1 = 0.8998 | 1012.14 | 1525.5 | 36.9 | 3.627
293.15 K, x1 = 1 | 997.91 | 1513.2 | 36.5 | 2.132
303.15 K, x1 = 0.1001 | 1106.6 | 1588.7 | 43.9 | 252.99
303.15 K, x1 = 0.2 | 1095.17 | 1575.4 | 42.3 | 151.13
303.15 K, x1 = 0.3 | 1083.52 | 1562.2 | 41.3 | 85.6
303.15 K, x1 = 0.4004 | 1070.78 | 1548.9 | 40.2 | 46.14
303.15 K, x1 = 0.5001 | 1058.92 | 1538.5 | 39.2 | 25.54
303.15 K, x1 = 0.6002 | 1045.86 | 1526.5 | 38.6 | 14.29
303.15 K, x1 = 0.7002 | 1032.59 | 1514.2 | 37.5 | 8.268
303.15 K, x1 = 0.8 | 1018.3 | 1502.2 | 36.7 | 4.866
303.15 K, x1 = 0.8998 | 1003.86 | 1490.5 | 36 | 2.902
303.15 K, x1 = 1 | 989.34 | 1475 | 35.2 | 1.777
313.15 K, x1 = 0.1001 | 1100.7 | 1569.8 | 43 | 132.88
313.15 K, x1 = 0.2 | 1088.99 | 1555.1 | 41.6 | 82.06
313.15 K, x1 = 0.3 | 1076.98 | 1540.4 | 40.6 | 47.47
313.15 K, x1 = 0.4004 | 1063.92 | 1524.8 | 39.4 | 28.4
313.15 K, x1 = 0.5001 | 1051.74 | 1512.2 | 38.3 | 16.84
313.15 K, x1 = 0.6002 | 1038.43 | 1497.6 | 37.6 | 10.07
313.15 K, x1 = 0.7002 | 1024.86 | 1483.1 | 36.4 | 6.178
313.15 K, x1 = 0.8 | 1010.29 | 1468.6 | 35.8 | 3.794
313.15 K, x1 = 0.8998 | 995.57 | 1456.6 | 35 | 2.379
313.15 K, x1 = 1 | 980.76 | 1437.6 | 34.2 | 1.515
323.15 K, x1 = 0.1001 | 1094.74 | 1551.9 | – | 75.13
323.15 K, x1 = 0.2 | 1082.69 | 1534.9 | – | 46.57
323.15 K, x1 = 0.3 | 1070.36 | 1517.4 | – | 29.62
323.15 K, x1 = 0.4004 | 1057 | 1500.3 | – | 18.7
323.15 K, x1 = 0.5001 | 1044.54 | 1485.3 | – | 11.73
323.15 K, x1 = 0.6002 | 1030.97 | 1469.1 | – | 7.428
323.15 K, x1 = 0.7002 | 1017.11 | 1452.3 | – | 4.758
323.15 K, x1 = 0.8 | 1002.27 | 1435.5 | – | 3.06
323.15 K, x1 = 0.8998 | 987.27 | 1422.3 | – | 1.994
323.15 K, x1 = 1 | 972.16 | 1400.6 | – | 1.31

CCN1CCCC1=O [1-ethyl-2-pyrrolidinone] + OCCNCCO
Conditions | mass density [kg/m3] | speed of sound [m/s] | surface tension liquid-gas [mN/m] | viscosity [mPa·s]
293.15 K, x1 = 0.1 | 1084.34 | 1700.4 | 44.5 | 462.69
293.15 K, x1 = 0.2005 | 1072.76 | 1666.7 | 42.8 | 227.23
293.15 K, x1 = 0.3001 | 1061.83 | 1638.2 | 41.2 | 109.6
293.15 K, x1 = 0.4002 | 1051.18 | 1611.7 | 40.1 | 51.6
293.15 K, x1 = 0.4999 | 1040.9 | 1589.2 | 39.2 | 26.02
293.15 K, x1 = 0.6 | 1031.22 | 1569.3 | 38.1 | 13.84
293.15 K, x1 = 0.7001 | 1022.09 | 1552.5 | 37.8 | 8.154
293.15 K, x1 = 0.8001 | 1013.33 | 1538.4 | 37.2 | 4.999
293.15 K, x1 = 0.8995 | 1005.23 | 1524.5 | 36.5 | 3.117
293.15 K, x1 = 1 | 997.91 | 1513.2 | 36.5 | 2.132
303.15 K, x1 = 0.1 | 1077.54 | 1672.2 | 43.6 | 211.41
303.15 K, x1 = 0.2005 | 1065.85 | 1637.9 | 41.3 | 110.73
303.15 K, x1 = 0.3001 | 1054.58 | 1607.8 | 40.1 | 55.57
303.15 K, x1 = 0.4002 | 1043.68 | 1581 | 39.1 | 29.59
303.15 K, x1 = 0.4999 | 1033.22 | 1557.4 | 38.4 | 16.21
303.15 K, x1 = 0.6 | 1023.25 | 1536.3 | 37.1 | 9.351
303.15 K, x1 = 0.7001 | 1013.95 | 1518.1 | 36.7 | 5.87
303.15 K, x1 = 0.8001 | 1005.2 | 1503.6 | 36.2 | 3.826
303.15 K, x1 = 0.8995 | 996.81 | 1487.8 | 35.3 | 2.496
303.15 K, x1 = 1 | 989.34 | 1475 | 35.2 | 1.777
313.15 K, x1 = 0.1 | 1070.86 | 1645.8 | 42 | 108.68
313.15 K, x1 = 0.2005 | 1058.79 | 1610.1 | 40.4 | 57.66
313.15 K, x1 = 0.3001 | 1047.53 | 1578.7 | 38.8 | 32.13
313.15 K, x1 = 0.4002 | 1036.08 | 1550.5 | 38.3 | 18.38
313.15 K, x1 = 0.4999 | 1025.43 | 1526.2 | 37 | 10.8
313.15 K, x1 = 0.6 | 1015.25 | 1503.7 | 36.3 | 6.732
313.15 K, x1 = 0.7001 | 1005.78 | 1484.4 | 35.9 | 4.419
313.15 K, x1 = 0.8001 | 996.9 | 1469.1 | 34.8 | 3.014
313.15 K, x1 = 0.8995 | 988.38 | 1451.6 | 34.4 | 2.058
313.15 K, x1 = 1 | 980.76 | 1437.6 | 34.2 | 1.515
323.15 K, x1 = 0.1 | 1064.04 | 1619.5 | – | 57.82
323.15 K, x1 = 0.2005 | 1051.64 | 1582.5 | – | 33.78
323.15 K, x1 = 0.3001 | 1039.8 | 1550 | – | 20.16
323.15 K, x1 = 0.4002 | 1028.42 | 1519.9 | – | 12.28
323.15 K, x1 = 0.4999 | 1017.57 | 1495.1 | – | 7.624
323.15 K, x1 = 0.6 | 1007.21 | 1471 | – | 5.011
323.15 K, x1 = 0.7001 | 997.61 | 1450.7 | – | 3.439
323.15 K, x1 = 0.8001 | 988.58 | 1434.7 | – | 2.429
323.15 K, x1 = 0.8995 | 979.92 | 1415.6 | – | 1.734
323.15 K, x1 = 1 | 972.16 | 1400.6 | – | 1.31
